Values after ≈ are worked out from the molar mass of the structure shown.
Columns and labels:
[1] = tested on: Staphylococcus aureus SA-1 (UC-76); test: Microbroth dilution MIC testing against S. aureus; format: cell-based; conditions: S. aureus UC76, CAMHB, 35° C., 16 to 24 hours, read-out: Minimum Inhibitory Concentration S. aureus UC76
Experimental: (§1) In this example, the in vitro antibacterial activity of selected compounds was determined against S. aureus and H. influenzae. Except for clarifying or modifying statements, MIC testing followed procedures recommended by the NCCLS^1-2 or followed the descriptions cited below.
(§2) Bacterial Cultures At least the following organisms are included in the screen: Staphylococcus aureus SA-1 (UC-76) and H. influenzae HI-3542. Incubations were at 35° C. Stock bacterial cultures were maintained on Tryptic Soy Agar containing 5% Sheep Blood (BD, Becton Dickinson Microbiology Systems, Cockeysville, Md.), anaerobes were maintained on Anaerobic Blood Agar plates—CDC Formulation (BD), and fastidious organisms were maintained on Chocolate Agar II Plates (BD). Specific conditions of handling are listed below.
(§3) Standardized Organism Inocula Frozen stock cultures were used as the initial source of organisms for performing microbroth dilution MIC testing. Stock cultures were passed on their standard growth medium for at least 1 growth cycle (18 24 hours) prior to their use.
(§4) Most bacteria, unless otherwise noted, were prepared directly from agar plates in 10 mL aliquots of the appropriate broth medium. Bacterial cultures were adjusted to the opacity of a 0.5 McFarland Standard (optical density value of 0.28-0.33 on a Perkin-Elmer Lambda EZ150 Spectrophotometer Wellesley, Mass., set at a wavelength of 600 nm).). The adjusted cultures were diluted 400 fold (0.25 mL inoculum+100 mL broth) in growth media to produce a starting suspension of approximately 5×10^5 colony forming units (CFU)/mL. Unless otherwise noted, bacterial strains were tested in cation adjusted Mueller Hinton Broth (CAMHB).
(§5) Test Compound (“Drug”) Preparation Compounds were solubilized in DMSO. Drug stock solutions were prepared on the day of testing. Drugs were weight corrected for assay content where necessary.
(§6) Drug Dilution Tray Preparation Microbroth dilution stock plates were prepared in two dilution series, 64 to 0.06 μg drug/mL and 0.25 to 0.00025 μg drug/mL. For the high concentration series, 200 μL of stock solution (2 mg/mL) was added to duplicate rows of a 96-well microtiter plate. This was used as the first well in the dilution series. Serial two-fold decremental dilutions were made using a BioMek FX robot (Beckman Coulter Inc., Fullerton, Calif.) with 10 of the remaining 11 wells, each of which contained 100 μL of the appropriate solvent/diluent. Row 12 contained solvent/diluent only and served as the control. For tube one of the low concentration series, 200 μL of an 8 μg/mL stock was added to duplicate rows of a 96-well plate. Serial two-fold dilutions were made as described above.
(§7) Daughter plates were spotted (3.2 μL/well) from the stock plates listed above using the BioMek FX robot and were either used immediately or frozen at −70° C. until use.
(§8) Plate Inoculation Aerobic organisms were inoculated (100 μL volumes) into the thawed plates using the BioMek FX robot. The inoculated plates were placed in stacks of no more than 5 and covered with an empty plate. These plates were incubated 16 to 24 hours in ambient atmosphere according to CLSI guidelines^2.
(§9) Reading the Test After inoculation and incubation, the degree of bacterial growth was estimated visually with the aid of a Test Reading Mirror (Dynex Technologies 220 16) in a darkened room with a single light shining directly through the top of the microbroth tray. The MIC was the lowest concentration of drug that prevented macroscopically visible growth under the conditions of the test. Testing was performed in duplicate. When the MIC values in duplicate tests varied by 1 well (2 fold), the lower values were reported. If the MICs varied by 2 dilutions, the middle value was reported. Greater than this 4 fold variance called for the test to be repeated, after which a similar determination was applied to all values.

[2] = tested on: H. influenzae HI-3542; test: Microbroth dilution MIC testing against H. influenzae; format: cell-based; conditions: HI3542, H. influenzae 3542, Haemophilus Test Medium, 35° C., 16 to 24 hours, read-out: Minimum Inhibitory Concentration H. influenzae 3542
Experimental: as §1, §2
Haemophilus was maintained on Chocolate Agar II Plates at room temperature in a candle jar providing a 3 5% CO2 atmosphere.
as §3, §4
Haemophilus influenzae strains were grown on Chocolate Agar II Plates and tested in Haemophilus Test Medium (Remel, Lenexa, Kans.).
as §5, §6, §7, §8
as §9, with “Greater than this 4 fold variance called for the test to be repeated, after which a similar determination was applied to all values.” left out

Compound	MIC [1]	MIC [2]
COc1nccnc1-c1ccc2c(c1)CC1(C(=O)NC(=O)NC1=O)[C@@H]1[C@@H](C)O[C@@H](C)CN21 (relative stereo) [Compound 21, rel-(2S,4R,4aR)-8-(3-methoxypyrazin-2-yl)-2,4-dimethyl-1,2,4,4a-tetrahydro-2′H,6H-spiro[1,4-oxazino[4,3-a]quinoline-5,5′-pyrimidine]-2′,4′,6′(1′H,3′H)-trione]	16 µg/mL (≈ 36.6 µM)	32 µg/mL (≈ 73.2 µM)
COCCOc1c(-c2cnccn2)cc2c(c1F)N1C[C@H](C)O[C@H](C)[C@H]1C1(C2)C(=O)NC(=O)NC1=O (relative stereo) [Compound 17, rel-(2S,4R,4aR)-10-fluoro-9-(2-methoxyethoxy)-2,4-dimethyl-8-pyrazin-2-yl-1,2,4,4a-tetrahydro-2′H,6H-spiro[1,4-oxazino[4,3-a]quinoline-5,5′-pyrimidine]-2′,4′,6′(1′H,3′H)-trione]	> 64 µg/mL	> 64 µg/mL
C[C@@H]1CN2c3c(cc(-c4cnccn4)c(F)c3F)CC3(C(=O)N(CN4CCN(C)CC4)C(=O)N(CN4CCN(C)CC4)C3=O)[C@H]2[C@H](C)O1 [Compound 5, (2R,4S,4aS)-9,10-difluoro-2,4-dimethyl-1′,3′-bis[(4-methylpiperazin-1-yl)methyl]-8-pyrazin-2-yl-1,2,4,4a-tetrahydro-2′H,6H-spiro[1,4-oxazino[4,3-a]quinoline-5,5′-pyrimidine]-2′,4′,6′(1′H,3′H)-trione]	0.5 µg/mL (≈ 0.749 µM)	1 µg/mL (≈ 1.5 µM)
CCOc1cnc(-c2cc3c(c(F)c2F)N2C[C@@H](C)O[C@@H](C)[C@@H]2C2(C3)C(=O)NC(=O)NC2=O)cn1 [Compound 26, (2R,4S,4aS)-8-(5-ethoxypyrazin-2-yl)-9,10-difluoro-2,4-dimethyl-1,2,4,4a-tetrahydro-2′H,6H-spiro[1,4-oxazino[4,3-a]quinoline-5,5′-pyrimidine]-2′,4′,6′(1′H,3′H)-trione]	0.25 µg/mL (≈ 0.513 µM)	1 µg/mL (≈ 2.05 µM)
C[C@H]1CN2c3cc(F)c(-c4cnccn4)cc3CC3(C(=O)NC(=O)NC3=O)[C@@H]2[C@@H](C)O1 (relative stereo) [Compound 19, rel-(2S,4R,4aR)-9-dluoro-2,4-dimethyl-8-pyrazin-2-yl-1,2,4,4a-tetrahydro-2′H,6H-spiro[1,4-oxazino[4,3-a]quinoline-5,5′-pyrimidine]-2′,4′,6′(1′H,3′H)-trione]	2 µg/mL (≈ 4.7 µM)	2 µg/mL (≈ 4.7 µM)
C[C@@H]1CN2c3c(cc(-c4cnccn4)c(F)c3F)CC3(C(=O)N(CN4CCOCC4)C(=O)N(CN4CCOCC4)C3=O)[C@H]2[C@H](C)O1 [Compound 4, (2R,4S,4aS)-9,10-difluoro-2,4-dimethyl-1′,3′-bis(morpholin-4-ylmethyl)-8-pyrazin-2-yl-1,2,4,4a-tetrahydro-2′H,6H-spiro[1,4-oxazino[4,3-a]quinoline-5,5′-pyrimidine]-2′,4′,6′(1′H,3′H)-trione]	0.25 µg/mL (≈ 0.39 µM)	0.5 µg/mL (≈ 0.779 µM)
C[C@@H]1CN2c3c(cc(-c4cnc(N)cn4)c(F)c3F)CC3(C(=O)NC(=O)NC3=O)[C@H]2[C@H](C)O1 [Compound 22, (2R,4S,4aS)-8-(5-aminopyrazin-2-yl)-9,10-difluoro-2,4-dimethyl-1,2,4,4a-tetrahydro-2′H,6H-spiro[1,4-oxazino[4,3-a]quinoline-5,5′-pyrimidine]-2′,4′,6′(1′H,3′H)-trione]	0.5 µg/mL (≈ 1.09 µM)	0.5 µg/mL (≈ 1.09 µM)
C[C@H]1CN2c3c(cc(-c4cnccn4)c(N4CCOCC4)c3F)CC3(C(=O)NC(=O)NC3=O)[C@@H]2[C@@H](C)O1 (relative stereo) [Compound 16, rel-(2S,4R,4aR)-10-fluoro-2,4-dimethyl-9-morpholin-4-yl-8-pyrazin-2-yl-1,2,4,4a-tetrahydro-2′H,6H-spiro[1,4-oxazino[4,3-a]quinoline-5,5′-pyrimidine]-2′,4′,6′(1′H,3′H)-trione]	> 64 µg/mL	> 64 µg/mL
Cc1cnc(-c2cc3c(c(F)c2F)N2C[C@@H](C)O[C@@H](C)[C@@H]2C2(C3)C(=O)NC(=O)NC2=O)cn1 [Compound 23, (2R,4S,4aS)-9,10-difluoro-2,4-dimethyl-8-(5-methylpyrazin-2-yl)-1,2,4,4a-tetrahydro-2′H,6H-spiro[1,4-oxazino[4,3-a]quinoline-5,5′-pyrimidine]-2′,4′,6′(1′H,3′H)-trione]	0.125 µg/mL (≈ 0.273 µM)	1 µg/mL (≈ 2.19 µM)
COc1cnc(-c2cc3c(c(F)c2F)N2C[C@@H](C)O[C@@H](C)[C@@H]2C2(C3)C(=O)NC(=O)NC2=O)cn1 [Compound 25, (2R,4S,4aS)-9,10-difluoro-8-(5-methoxypyrazin-2-yl)-2,4-dimethyl-1,2,4,4a-tetrahydro-2′H,6H-spiro[1,4-oxazino[4,3-a]quinoline-5,5′-pyrimidine]-2′,4′,6′(1′H,3′H)-trione]	0.125 µg/mL (≈ 0.264 µM)	0.5 µg/mL (≈ 1.06 µM)
C[C@H]1CN2c3c(cc(-c4cnccn4)c(F)c3F)CC3(C(=O)NC(=O)NC3=O)[C@@H]2[C@@H](C)O1 (relative stereo) [Compound 1, rel-(2S,4R,4aR)-9,10-difluoro-2,4-dimethyl-8-pyrazin-2-yl-1,2,4,4a-tetrahydro-2′H,6H-spiro[1,4-oxazino[4,3-a]quinoline-5,5′-pyrimidine]-2′,4′,6′(1′H,3′H)-trione]	–	1 µg/mL (≈ 2.26 µM)
C[C@H]1CN2c3c(cc(-c4cnccn4)c(F)c3F)CC3(C(=O)NC(=O)NC3=O)[C@@H]2[C@@H](C)O1 [Compound 3, (2S,4R,4aR)-9,10-difluoro-2,4-dimethyl-8-pyrazin-2-yl-1,2,4,4a-tetrahydro-2′H,6H-spiro[1,4-oxazino[4,3-a]quinoline-5,5′-pyrimidine]-2′,4′,6′(1′H,3′H)-trione]	–	> 64 µg/mL
C[C@H]1CN2c3c(F)cc(-c4cnccn4)cc3CC3(C(=O)NC(=O)NC3=O)[C@@H]2[C@@H](C)O1 (relative stereo) [Compound 15, rel-(2S,4R,4aR)-10-fluoro-2,4-dimethyl-8-pyrazin-2-yl-1,2,4,4a-tetrahydro-2′H,6H-spiro[1,4-oxazino[4,3-a]quinoline-5,5′-pyrimidine]-2′,4′,6′(1′H,3′H)-trione]	1 µg/mL (≈ 2.35 µM)	4 µg/mL (≈ 9.4 µM)
C[C@H]1CN2c3c(cc(-c4cnccn4)c(OCCF)c3F)CC3(C(=O)NC(=O)NC3=O)[C@@H]2[C@@H](C)O1 (relative stereo) [Compound 18, rel-(2S,4R,4aR)-10-fluoro-9-(2-fluoroethoxy)-2,4-dimethyl-8-pyrazin-2-yl-1,2,4,4a-tetrahydro-2′H,6H-spiro[1,4-oxazino[4,3-a]quinoline-5,5′-pyrimidine]-2′,4′,6′(1′H,3′H)-trione]	> 64 µg/mL	> 64 µg/mL
C[C@H]1CN2c3ccc(-c4cnccn4)cc3CC3(C(=O)NC(=O)NC3=O)[C@@H]2[C@@H](C)O1 (relative stereo) [Compound 20, rel-(2S,4R,4aR)-2,4-dimethyl-8-pyrazin-2-yl-1,2,4,4a-tetrahydro-2′H,6H-spiro[1,4-oxazino[4,3-a]quinoline-5,5′-pyrimidine]-2′,4′,6′(1′H,3′H)-trione]	4 µg/mL (≈ 9.82 µM)	2 µg/mL (≈ 4.91 µM)
